In the supplement of paper PMC10307832:

How the values were obtained:
Test in all cases: relative viability (nuclei count vs DMSO), 5 days (fraction); higher = more cells survive
NCI-H1975 = test system: NCI-H1975
Method in brief: (§1)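 Relative viability was taken as the ratio of nuclei in treated wells to nuclei in vehicle wells. Lung cancer cell lines in 1536-well plates received compounds by pin tool one day after seeding, either one drug alone or a fixed anchor-drug dose plus five library-drug doses (not always all listed) in √10 steps. Nuclei were counted on 4× images after 5 days of treatment, and values are medians of duplicate plates.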

NCI-H1651 = test system: NCI-H1651
Method in brief: as §1

NCI-H1734 = test system: NCI-H1734
Method in brief: as §1

EMC-BAC-2 = test system: EMC-BAC-2
Method in brief: as §1

NCI-H661 = test system: NCI-H661
Method in brief: as §1

ABC-1 = test system: ABC-1
Method in brief: as §1

EPLC-272H = test system: EPLC-272H
Method in brief: as §1

NCI-H1792 = test system: NCI-H1792
Method in brief: as §1

NCI-H647 = test system: NCI-H647
Method in brief: as §1

NCI-H1915 = test system: NCI-H1915
Method in brief: as §1

RERF-LC-KJ = test system: RERF-LC-KJ
Method in brief: as §1

201T = test system: 201T
Method in brief: as §1

NCI-H23 = test system: NCI-H23
Method in brief: as §1

SK-LU-1 = test system: SK-LU-1
Method in brief: as §1

NCI-H2023 = test system: NCI-H2023
Method in brief: as §1

HCC-78 = test system: HCC-78
Method in brief: as §1

NCI-H2405 = test system: NCI-H2405
Method in brief: as §1

NCI-H1437 = test system: NCI-H1437
Method in brief: as §1

LOU-NH91 = test system: LOU-NH91
Method in brief: as §1

UMC-11 = test system: UMC-11
Method in brief: as §1

LCLC-103H = test system: LCLC-103H
Method in brief: as §1

SMILES: Cc1cnc(-c2cnc(NCCNc3ccc(C#N)cn3)nc2-c2ccc(Cl)cc2Cl)[nH]1 + C[C@@H](Oc1cc(-c2cnn(C3CCNCC3)c2)cnc1N)c1c(Cl)ccc(F)c1Cl [Crizotinib] (partner 1 µM)
- relative viability (NCI-H1975; first compound 0.08 µM): 0.968
- relative viability (NCI-H1975; first compound 0.253 µM): 0.907
- relative viability (NCI-H1975; first compound 0.8 µM): 0.906
- relative viability (NCI-H1975; first compound 2.53 µM): 0.569
- relative viability (NCI-H1651; first compound 0.08 µM): 0.915
- relative viability (NCI-H1651; first compound 0.253 µM): 0.797
- relative viability (NCI-H1651; first compound 0.8 µM): 0.852
- relative viability (NCI-H1651; first compound 2.53 µM): 0.825
- relative viability (NCI-H1734; first compound 0.08 µM): 0.65
- relative viability (NCI-H1734; first compound 0.253 µM): 0.636
- relative viability (NCI-H1734; first compound 0.8 µM): 0.647
- relative viability (NCI-H1734; first compound 2.53 µM): 0.631
- relative viability (EMC-BAC-2; first compound 0.08 µM): 0.841
- relative viability (EMC-BAC-2; first compound 0.253 µM): 0.739
- relative viability (EMC-BAC-2; first compound 0.8 µM): 0.814
- relative viability (EMC-BAC-2; first compound 2.53 µM): 0.703
- relative viability (NCI-H661; first compound 0.08 µM): 0.924
- relative viability (NCI-H661; first compound 0.253 µM): 0.941
- relative viability (NCI-H661; first compound 0.8 µM): 0.947
- relative viability (NCI-H661; first compound 2.53 µM): 0.867
- relative viability (ABC-1; first compound 0.08 µM): 1.03
- relative viability (ABC-1; first compound 0.253 µM): 0.831
- relative viability (ABC-1; first compound 0.8 µM): 1.23
- relative viability (ABC-1; first compound 2.53 µM): 1.05
- relative viability (EPLC-272H; first compound 0.08 µM): 0.928
- relative viability (EPLC-272H; first compound 0.253 µM): 0.872
- relative viability (EPLC-272H; first compound 0.8 µM): 0.832
- relative viability (EPLC-272H; first compound 2.53 µM): 0.883
- relative viability (NCI-H1792; first compound 0.08 µM): 0.975
- relative viability (NCI-H1792; first compound 0.253 µM): 0.803
- relative viability (NCI-H1792; first compound 0.8 µM): 0.947
- relative viability (NCI-H1792; first compound 2.53 µM): 0.936
- relative viability (NCI-H647; first compound 0.08 µM): 1.06
- relative viability (NCI-H647; first compound 0.253 µM): 0.783
- relative viability (NCI-H647; first compound 0.8 µM): 1.07
- relative viability (NCI-H647; first compound 2.53 µM): 0.927
- relative viability (NCI-H1915; first compound 0.08 µM): 0.85
- relative viability (NCI-H1915; first compound 0.8 µM): 0.896
- relative viability (NCI-H1915; first compound 2.53 µM): 0.931
- relative viability (RERF-LC-KJ; first compound 0.08 µM): 0.833
- relative viability (RERF-LC-KJ; first compound 0.253 µM): 0.712
- relative viability (RERF-LC-KJ; first compound 0.8 µM): 0.794
- relative viability (RERF-LC-KJ; first compound 2.53 µM): 0.846
- relative viability (201T; first compound 0.08 µM): 1.07
- relative viability (201T; first compound 0.253 µM): 0.982
- relative viability (201T; first compound 0.8 µM): 1.02
- relative viability (201T; first compound 2.53 µM): 0.998
- relative viability (NCI-H23; first compound 0.08 µM): 0.676
- relative viability (NCI-H23; first compound 0.253 µM): 0.496
- relative viability (NCI-H23; first compound 0.8 µM): 0.638
- relative viability (NCI-H23; first compound 2.53 µM): 0.621
- relative viability (SK-LU-1; first compound 0.08 µM): 1.01
- relative viability (SK-LU-1; first compound 0.253 µM): 0.918
- relative viability (SK-LU-1; first compound 0.8 µM): 1.17
- relative viability (SK-LU-1; first compound 2.53 µM): 1.3
- relative viability (NCI-H2023; first compound 0.08 µM): 0.775
- relative viability (NCI-H2023; first compound 0.253 µM): 0.696
- relative viability (NCI-H2023; first compound 0.8 µM): 0.664
- relative viability (NCI-H2023; first compound 2.53 µM): 0.688
- relative viability (HCC-78; first compound 0.08 µM): 0.349
- relative viability (HCC-78; first compound 0.253 µM): 0.336
- relative viability (HCC-78; first compound 0.8 µM): 0.297
- relative viability (HCC-78; first compound 2.53 µM): 0.362
- relative viability (NCI-H2405; first compound 0.08 µM): 0.883
- relative viability (NCI-H2405; first compound 0.253 µM): 0.774
- relative viability (NCI-H2405; first compound 0.8 µM): 0.797
- relative viability (NCI-H2405; first compound 2.53 µM): 0.809
- relative viability (NCI-H1437; first compound 0.08 µM): 0.912
- relative viability (NCI-H1437; first compound 0.253 µM): 0.943
- relative viability (NCI-H1437; first compound 0.8 µM): 0.944
- relative viability (NCI-H1437; first compound 2.53 µM): 0.981
- relative viability (LOU-NH91; first compound 0.08 µM): 0.74
- relative viability (LOU-NH91; first compound 0.253 µM): 0.724
- relative viability (LOU-NH91; first compound 0.8 µM): 0.749
- relative viability (LOU-NH91; first compound 2.53 µM): 0.782
- relative viability (UMC-11; first compound 0.08 µM): 0.82
- relative viability (UMC-11; first compound 0.253 µM): 0.551
- relative viability (UMC-11; first compound 0.8 µM): 0.598
- relative viability (UMC-11; first compound 2.53 µM): 0.602
- relative viability (LCLC-103H; first compound 0.08 µM): 1.04
- relative viability (LCLC-103H; first compound 0.253 µM): 1.12
- relative viability (LCLC-103H; first compound 0.8 µM): 0.984
- relative viability (LCLC-103H; first compound 2.53 µM): 0.954
